Measurements reported in US8884023B2, “Pyrano [3,2-D][1,3]thiazole as glycosidase inhibitors” (priority 2011, dated 2014).
Like-named read-outs stand apart in the source and are kept apart here.

Key:
[1] = molecular target: T1, His-Tagged hOGA (human O-GlcNAcase) (Homo sapiens, UniProt O60502); test: biochemical
T1 sequence (O60502 1-916): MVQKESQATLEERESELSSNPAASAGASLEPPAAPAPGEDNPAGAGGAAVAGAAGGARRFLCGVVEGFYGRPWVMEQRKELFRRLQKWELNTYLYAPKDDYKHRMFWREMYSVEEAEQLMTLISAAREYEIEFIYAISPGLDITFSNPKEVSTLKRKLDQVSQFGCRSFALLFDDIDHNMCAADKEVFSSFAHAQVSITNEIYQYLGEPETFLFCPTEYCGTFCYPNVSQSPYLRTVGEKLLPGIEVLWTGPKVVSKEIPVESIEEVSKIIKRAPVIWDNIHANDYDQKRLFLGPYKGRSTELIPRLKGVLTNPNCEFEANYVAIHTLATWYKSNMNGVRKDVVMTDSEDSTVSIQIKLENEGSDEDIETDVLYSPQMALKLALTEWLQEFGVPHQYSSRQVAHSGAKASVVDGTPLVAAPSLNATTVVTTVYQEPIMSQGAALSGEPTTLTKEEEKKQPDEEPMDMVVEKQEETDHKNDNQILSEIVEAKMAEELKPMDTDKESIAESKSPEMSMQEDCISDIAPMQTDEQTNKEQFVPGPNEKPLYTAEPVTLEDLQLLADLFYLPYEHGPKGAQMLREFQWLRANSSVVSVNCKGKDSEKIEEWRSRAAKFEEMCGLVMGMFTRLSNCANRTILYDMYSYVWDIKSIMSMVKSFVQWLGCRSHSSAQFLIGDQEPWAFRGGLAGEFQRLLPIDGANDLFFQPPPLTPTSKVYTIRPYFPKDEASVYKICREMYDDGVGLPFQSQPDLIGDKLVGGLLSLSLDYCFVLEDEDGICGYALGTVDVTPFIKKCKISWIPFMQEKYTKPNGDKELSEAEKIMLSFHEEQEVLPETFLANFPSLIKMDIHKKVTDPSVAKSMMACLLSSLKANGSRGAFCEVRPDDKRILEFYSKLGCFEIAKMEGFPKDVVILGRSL
Method: Human O-GlcNAcase Enzyme Inhibition Assay
The following reaction components were added to a final volume of 10 μL in McIlvaine's Buffer (pH 6.5):
20 nM His-Tagged hOGA and 10 μM Fluoroscein mono-beta-D-(2-deoxy-2-N-acetyl) glucopyranoside (FL-GlcNAc; Marker Gene Technologies Inc, Part #M1485). […] The amount of fluorescence measured was plotted against the concentration of inhibitor to produce a sigmoidal dose response curve, from which an IC50 was calculated.

O-GlcNAcase = molecular target: T2, O-GlcNAcase (UniProt Q8VIJ5); format: cell-based
T2 sequence (Q8VIJ5 1-916): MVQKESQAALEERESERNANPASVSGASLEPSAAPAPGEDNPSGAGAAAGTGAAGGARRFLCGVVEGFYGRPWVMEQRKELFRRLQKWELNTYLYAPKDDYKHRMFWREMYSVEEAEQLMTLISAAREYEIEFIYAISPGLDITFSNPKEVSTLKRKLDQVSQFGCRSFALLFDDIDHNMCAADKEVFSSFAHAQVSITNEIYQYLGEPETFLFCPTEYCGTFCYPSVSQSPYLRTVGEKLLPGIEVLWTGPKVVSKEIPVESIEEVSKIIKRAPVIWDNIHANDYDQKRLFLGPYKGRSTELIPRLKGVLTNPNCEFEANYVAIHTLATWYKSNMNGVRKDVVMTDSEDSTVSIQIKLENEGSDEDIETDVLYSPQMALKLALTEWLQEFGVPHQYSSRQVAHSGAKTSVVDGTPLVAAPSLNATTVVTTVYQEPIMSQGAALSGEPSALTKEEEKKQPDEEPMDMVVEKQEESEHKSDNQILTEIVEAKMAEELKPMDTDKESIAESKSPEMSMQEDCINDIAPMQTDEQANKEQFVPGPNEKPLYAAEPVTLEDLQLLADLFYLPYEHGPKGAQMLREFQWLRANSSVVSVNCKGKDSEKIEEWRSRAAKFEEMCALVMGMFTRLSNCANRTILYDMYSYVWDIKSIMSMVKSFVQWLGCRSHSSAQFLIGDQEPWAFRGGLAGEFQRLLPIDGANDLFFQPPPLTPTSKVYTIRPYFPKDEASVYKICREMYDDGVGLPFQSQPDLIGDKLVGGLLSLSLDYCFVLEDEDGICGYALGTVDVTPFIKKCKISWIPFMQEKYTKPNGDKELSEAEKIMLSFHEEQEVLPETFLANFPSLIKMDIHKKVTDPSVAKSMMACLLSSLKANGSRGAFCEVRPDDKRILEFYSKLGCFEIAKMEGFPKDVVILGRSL
Text: Assay for the Determination of Cellular Activity for Compounds that Inhibit O-GlcNAcase Activity
Inhibition of O-GlcNAcase, which removes O-GlcNAc from cellular proteins, results in an increase in the level of O-GlcNAcylated proteins in cells. An increase in the O-GlcNAcylation of cellular proteins can be measured by an antibody, such as CTD110.6, that binds O-GlcNAcylated proteins. The amount of O-GlcNAcylated protein can be determined by the enzyme linked immunoabsorbant assay (ELISA) technique.
Cell lines, such as rat B35, rat PC-12 and human SH-SY5Y cells, expressing endogenous levels of O-GlcNAcase, could be utilized. Cells were plated in 96-well plates at a density of approximately 10,000 cells/well. Compounds to be tested were dissolved in DMSO as 10 mM stock solution, and then diluted first with DMSO and then culture media using the Bravo workstation. Cells were treated with diluted compounds for approximately 16 hours. […] To prepare a cell lysate, the media from compound treated cells were removed, and the cells were washed once with Dulbecco's phosphate buffered saline (DPBS) and then lysed for 30 minutes in 100 μl/well of ice cold RIPA buffer containing a protease inhibitor cocktail.
The ELISA portion of the assay was performed in EIA/RIA plates that were coated overnight at 4 C with 80 μl/well of cell lysate. The following day the wells were washed 6 times with 200 μl of wash buffer (0.05% Tween20 in DPBS). The wells were blocked with 200 μl blocking buffer (1% BSA, 0.05% Tween20 in DPBS) for 1 h at room temperature. Each well was then washed 6 times with 200 μl of wash buffer. The anti-O-GlcNAc antibody CTD110.6 (Covance, Princeton, N.J.) was added at 100 μl/well at a concentration of 10 μg/ml. The plates were incubated for 1 h at room temperature. The wells were then washed 6 times with 200 μl/well of wash buffer. To detect the amount of CTD110.6 bound to the cell lysate, alkaline phosphatase conjugated goat anti-mouse IgM (diluted 1:500 in blocking buffer) was added at 100 μl/well and incubated for 45 min at room temperature. Each well was then washed 6 times with 200 μl/well of wash buffer. PNPP tablets dissolved in diethanolamine substrate buffer and 100 μl/well were added as detection reagent.
The amount of O-GlcNAcylated protein, as detected by the ELISA assay, was plotted for each concentration of test compound using standard curve fitting algorithms for sigmoidal dose response curves. The values for a four parameter logistic curve fit of the data were determined, with the inflection point of the curve being the potency value for the test compound.

[2] = read-out: OGA enzyme inhibition (IC50)
[3] = cells expressing endogenous O-GlcNAcase (such as rat B35, rat PC-12, human SH-SY5Y), approximately 16 hours treatment; read-out: OGA cellular inhibition (EC50)

Structure (SMILES) | IC50 [1, 2] [nM] | EC50 (O-GlcNAcase; [3]) [nM] | IC50 [1] [nM] | EC50 (O-GlcNAcase; read-out: OGA cellular inhibition (EC50); cells expressing endogenous O-GlcNAcase (such as rat B35, rat PC-12, human SH-SY5Y), approximately 16 hours treatment) [nM]
CCNC1=N[C@@H]2[C@@H](O)[C@H](O)[C@@H](C(O)CCc3ccccc3)O[C@@H]2S1 (single isomer, unassigned) [compound no. 53] | 100 to 500 | 100 to 500 |  | 
CCNC1=N[C@@H]2[C@@H](O)[C@H](O)[C@@H](COC(c3ccccc3)(c3ccccc3)c3ccccc3)O[C@@H]2S1 [compound 43] |  | > 1000 | 500 to 1000 | 
CCNC1=N[C@@H]2[C@@H](O)[C@H](O)[C@@H](Cn3cc(Cn4cccc4)nn3)O[C@@H]2S1 [compound 66] | < 100 | > 1000 |  | 
CCNC1=N[C@@H]2[C@@H](O)[C@H](O)[C@@H](Cn3cc(C(O)c4ccccc4)nn3)O[C@@H]2S1 (some centres unmarked) [compound 68] |  | > 1000 | < 100 | 
CCNC1=N[C@@H]2[C@@H](O)[C@H](O)[C@@H](Cn3cc(Cn4c5ccccc5c5ccccc54)nn3)O[C@@H]2S1 [compound 69] | 100 to 500 | 100 to 500 |  | 
CCNC1=N[C@@H]2[C@@H](O)[C@H](O)[C@@H](Cn3cc(C(O)(c4ccccc4)C(F)(F)F)nn3)O[C@@H]2S1 (some centres unmarked) [compound 70] |  | > 1000 | < 100 | 
CCNC1=N[C@@H]2[C@@H](O)[C@H](O)[C@@H](Cn3cc(CN(C)c4ccccc4)nn3)O[C@@H]2S1 [compound 71] |  | > 1000 | 100 to 500 | 
CCNC1=N[C@@H]2[C@@H](O)[C@H](O)[C@@H](Cn3cc(COc4cccc(Br)c4)nn3)O[C@@H]2S1 [compound 72] | < 100 | 100 to 500 |  | 
CCNC1=N[C@@H]2[C@@H](O)[C@H](O)[C@@H](Cn3cc(COc4cccc(C#N)c4)nn3)O[C@@H]2S1 [compound 73] |  | 500 to 1000 | < 100 | 
CCNC1=N[C@@H]2[C@@H](O)[C@H](O)[C@@H](Cn3cc(COc4cccc(O)c4)nn3)O[C@@H]2S1 [compound 74] | < 100 | > 1000 |  | 
CCNC1=N[C@@H]2[C@@H](O)[C@H](O)[C@@H](Cn3cc(COc4cccc(CO)c4)nn3)O[C@@H]2S1 [compound 75] |  | > 1000 | < 100 | 
CCNC1=N[C@@H]2[C@@H](O)[C@H](O)[C@@H](Cn3cc(COc4cccc(C(C)O)c4)nn3)O[C@@H]2S1 (some centres unmarked) [compound 76] |  | > 1000 | < 100 | 
CCNC1=N[C@@H]2[C@@H](O)[C@H](O)[C@@H](Cn3cc(COc4cccc(C)c4)nn3)O[C@@H]2S1 [compound 77] | < 100 | 100 to 500 |  | 
CCNC1=N[C@@H]2[C@@H](O)[C@H](O)[C@@H](Cn3cc(COc4cccc(Cl)c4)nn3)O[C@@H]2S1 [compound 78] |  | < 100 | < 100 | 
CCNC1=N[C@@H]2[C@@H](O)[C@H](O)[C@@H](Cn3cc(COc4cccc(F)c4)nn3)O[C@@H]2S1 [compound 79] | < 100 | 100 to 500 |  | 
CCNC1=N[C@@H]2[C@@H](O)[C@H](O)[C@@H](Cn3cc(COc4cccc(OC)c4)nn3)O[C@@H]2S1 [compound 80] |  | 100 to 500 | < 100 | 
CCNC1=N[C@@H]2[C@@H](O)[C@H](O)[C@@H](Cn3cc(COc4cccc(S(C)(=O)=O)c4)nn3)O[C@@H]2S1 [compound 81] |  | > 1000 | < 100 | 
CCNC1=N[C@@H]2[C@@H](O)[C@H](O)[C@@H](Cn3cc(COc4ccccc4C#N)nn3)O[C@@H]2S1 [compound 82] |  | > 1000 | < 100 | 
CCNC1=N[C@@H]2[C@@H](O)[C@H](O)[C@@H](Cn3cc(COc4ccccc4O)nn3)O[C@@H]2S1 [compound 84] |  | > 1000 | 100 to 500 | 
CCNC1=N[C@@H]2[C@@H](O)[C@H](O)[C@@H](Cn3cc(COc4ccccc4Cl)nn3)O[C@@H]2S1 [compound 86] |  | < 100 | < 100 | 
CCNC1=N[C@@H]2[C@@H](O)[C@H](O)[C@@H](Cn3cc(COc4ccccc4C)nn3)O[C@@H]2S1 [compound 87] | < 100 | 500 to 1000 |  | 
CCNC1=N[C@@H]2[C@@H](O)[C@H](O)[C@@H](Cn3cc(COc4ccccc4OC)nn3)O[C@@H]2S1 [compound 88] |  | > 1000 | < 100 | 
CCNC1=N[C@@H]2[C@@H](O)[C@H](O)[C@@H](Cn3cc(COc4ccccc4F)nn3)O[C@@H]2S1 [compound 89] | < 100 | 100 to 500 |  | 
CCNC1=N[C@@H]2[C@@H](O)[C@H](O)[C@@H](Cn3cc(COc4ccc(C(C)O)cc4)nn3)O[C@@H]2S1 (some centres unmarked) [compound 90] |  | > 1000 | < 100 | 
CCNC1=N[C@@H]2[C@@H](O)[C@H](O)[C@@H](Cn3cc(COc4ccc(C)cc4)nn3)O[C@@H]2S1 [compound 91] | 100 to 500 | > 1000 |  | 
CCNC1=N[C@@H]2[C@@H](O)[C@H](O)[C@@H](Cn3cc(COc4ccc(Cl)cc4)nn3)O[C@@H]2S1 [compound 92] | < 100 | 100 to 500 |  | 
CCNC1=N[C@@H]2[C@@H](O)[C@H](O)[C@@H](CN=[N+]=[N-])O[C@@H]2S1 [compound no. 1, (3aR,5R,6S,7R,7aR)-5-(azidomethyl)-2-(ethylamino)-5,6,7,7a-tetrahydro-3aH-pyrano[3,2-d][1,3]thiazole-6,7-diol] |  |  |  | 100 to 500
